According to patent US10413581B2, “Combination, composition, and method of administering the combination or composition to animals” (Phibro Animal Health Corporation, priority 2014, dated 2019):

Key:
E. acervulina [1] = assay: Example 5: birds infected with E. acervulina field isolate; performance, lesion score, OPG; assay type: in vivo
Protocol: In this particular embodiment, the effects of the composition and Salinomycin, independently, were evaluated. Lower amounts of the composition were tested, including the amount that is typically used by those in the art (i.e., 125 ppm). Salinomycin treatments used 44 ppm or 66 ppm Salinomycin. Non-infected birds that received no medication were used as a control (entry 1 of Table 2, below). Also, some birds were administered 66 ppm of Salinomycin, but where not infected (entry 7 of Table 2, below). The remaining birds were infected with 200,000 oocysts of field isolate of E. acervulina, which is a species of Eimeria that causes coccidiosis in poultry, particularly […] poultry, and subjected to the treatments described below in entries 2-6 of Table 2.

E. maxima [2] = assay: Example 5: birds infected with E. maxima field isolate; performance, lesion score, OPG; assay type: in vivo
Text: Similar protocols were used to determine the effects of lower amounts of NFP (e.g., 100 ppm, 125 ppm, and 150 ppm) on birds infected with E. maxima, a common form of Eimeria found in commercial broilers. Infected birds were infected with 37,500 oocysts of field isolate of E. maxima. The infected birds were subjected to the treatments described below in entries 2-6 of Table 3.

E. acervulina [3] = assay: Example 8: lesion score and OPG, E. acervulina; assay type: in vivo, Cobb 500 male chicks; settings: Composition 250 ppm, Salinomycin 66 ppm, alone or combined
Text: (§1) On Days 18, 28, and 35, three birds per pen were sacrificed and coccidial lesion scored for degree of E. acervulina, E. maxima and E. tenella infection (Examples 6 and 7). The system of Johnson and Reid (1970) wherein 0 is normal and 1, 2, 3, or 4 indicate increasing severity of infection were used for lesion scoring. In Example 8, three birds per pen were sacrificed on days […] and coccidial lesion scored for degree of E. acervulina, E. maxima and E. tenella infection. The system of Johnson and Reid (1970) wherein 0 is normal and 1, 2, 3, or 4 indicate increasing severity of infection were used for lesion scoring.
(§2) On Days 18 and 28 fresh fecal samples were collected from each pen (Examples 6 and 7). On Days 18 and 28, fresh fecal samples were collected from each pen (Example 8). These representative samples were tested to determine the degree of oocysts shedding/cycling. Oocysts per gram were determined for each sample.
(§3) In this example, the ability of exemplary compositions to improve bird performance under challenge conditions was determined. In some embodiments, an exemplary composition was administered alone and in other embodiments, it was administered in combination with Salinomycin. In some embodiments, the birds were not fed any additives (that is, neither the composition nor Salinomycin) and in other embodiments the birds were solely fed Salinomycin. The birds used in this example were exposed to ionophore tolerant coccidia in the litter of all pens, beginning from day of age. […] The results from this example further illustrate that the disclosed compositions and combinations are effective to better control coccidia that are partially resistant to ionophores.

E. maxima [4] = assay: Example 8: lesion score and OPG, E. maxima; assay type: in vivo, Cobb 500 male chicks; settings: Composition 250 ppm, Salinomycin 66 ppm, alone or combined
Text: as §1, §2, §3

coccidia = assay: Example 4: compatibility of the composition with Salinomycin; feed conversion, weight gain, oocysts, coccidial challenge; assay type: in vivo, broilers; settings: between days 21 and 28; composition 250 ppm, Salinomycin 66 ppm
Protocol: In this particular embodiment, the compatibility of the Yucca schidigera and Quillaja saponaria composition with Salinomycin was evaluated. The treatments included embodiments where no feed additive was provided (e.g., none of the composition added), where 250 ppm of the composition was provided, where 66 ppm of Salinomycin was provided, and embodiments where 250 ppm of the composition and 66 ppm of Salinomycin were provided in combination. The anticoccidial effects and immune potentiation of each test embodiment were evaluated and the results are provided graphically in FIGS. 20-26.
A challenge study was also conducted to evaluate the potential for immune potentiation. Similar to the challenge study described in Example 3, 5 birds were removed from each pen after 21 days. These birds were challenged with a three-species coccidial challenge and then placed in batter cages for seven days. On day 28, the birds were killed and lesion scored.

E. tenella [5] = assay: Example 5: birds infected with E. tenella field isolate; performance, lesion score, OPG; assay type: in vivo
Text: In another test embodiment, the effects of lower amounts of NFP (e.g., 100 ppm, 125 ppm, and 150 ppm) on birds infected with E. tenella, a species of Eimeria that causes hemorrhagic cecal coccidiosis in poultry, particularly young poultry. Infected birds were infected with 100,000 oocysts of field isolate of E. tenella. The infected birds were subjected to the treatments described below in entries 2-6 of Table 4.

E. tenella [6] = assay: Example 8: lesion score and OPG, E. tenella; assay type: in vivo, Cobb 500 male chicks; settings: Composition 250 ppm, Salinomycin 66 ppm, alone or combined
Text: as §1, §2, §3

[7] = tested on: ionophore tolerant coccidia; assay: Example 8 floor pen study, ionophore tolerant coccidia in the litter: performance, mortality, total lesion score, total OPG; assay type: in vivo, Cobb 500 male chicks
Text: In the embodiments described below in Examples 6-8, the following conditions and methods were utilized. The test house was divided into pens of equal size, arranged along a central aisle. Subtracting out for equipment, the initial bird density was ˜0.84 square ft/bird. Each pen had 5 feet high side walls with bottom 1½ feet being of solid wood to prevent bird migration. All flooring of each pen had approximately 4 inches of built-up litter.
The temperature of the building was monitored. Environmental conditions during the trial (temperature) were appropriate (optimum) to the age of the animals Illumination was provided by fluorescent bulbs placed above the pens. The lighting scheme was 24 hours of light per day.
The diets were provided ad libitum in one tube-type feeder per pen. From day 1 until day 7, feed will also be supplied on a tray placed directly on the litter of each pen.
Standard floor pen management practices were used throughout the experiment. Animals and housing facilities were inspected twice daily, observing and recording the general health status, constant feed and water supply as well as temperature, removing all dead birds, and recognizing unexpected events.
All feeds were fed as crumbles/pellets. Quantities of all basal feed and test articles used to prepare treatment batches were documented. Each batch of feed was mixed and bagged separately. Each bag was identified with the study number, date of mix, type of feed, and the correct treatment number. Complete records of feed mixing, and test article inventories were maintained. A sample from the beginning, middle, and end of each treatment feed were mixed to form a composite sample. This sample of each treatment was retained until study end. All feed was weighed by pen. Starter feed was fed from Day 0 to 18. On Day 18, non-consumed starter was weighed and discarded. Grower feed was issued and fed until Day 28. On Day 28, non-consumed grower was weighed and discarded. Finisher feed was issued and fed until Day 42. On Day 42, non-consumed finisher was weighed and discarded.
Day of hatch male chicks were obtained from Cobb-Vantress hatchery, Cleveland, Ga. The strain was Cobb 500. Breeder flock was recorded. 1760 chicks were allocated to the study. At the hatchery, the birds received routine vaccinations. The birds were sexed at the hatchery. In Example 7, all chicks were spray vaccinated with conventional doses of Coccivac-B. Only healthy appearing chicks were used in the study. In examples 6 and 7, fifty-five males were allocated to each treatment pen by blocks. In example 8, fifty-two males were allocated to each treatment pen by blocks. No birds were replaced during the course of the study. Number and disposition of all birds not used for allocation were documented. Bird weights (kg) by pen were recorded at study initiation, Day 18, 28, and termination (Day 42).
as §1
On Days 18 and 28 fresh fecal samples were collected from each pen (Examples 6 and 7). […] These representative samples were tested to determine the degree of oocysts shedding/cycling. Oocysts per gram were determined for each sample.
In this example, the ability of exemplary compositions to improve bird performance under challenge conditions was determined. […]

[8] = 44 ppm, birds infected with 200,000 oocysts of E. acervulina
[9] = 66 ppm, entry 7 of Table 2 (not infected)
[10] = 44 ppm, birds infected with 37,500 oocysts of E. maxima
[11] = 66 ppm, entry 7 of Table 3 (entries 2-6 infected)
[12] = 44 ppm, birds infected with 100,000 oocysts of E. tenella
[13] = 66 ppm, entry 7 of Table 4 (entries 2-6 infected)
[14] = Day 18, Composition 250 ppm, Salinomycin 66 ppm, alone or combined
[15] = Day 28, Composition 250 ppm, Salinomycin 66 ppm, alone or combined
[16] = Day 42, Composition 250 ppm, Salinomycin 66 ppm, alone or combined

CC[C@@H](C(=O)[C@@H](C)[C@@H](O)[C@H](C)[C@@H]1O[C@@H]([C@@H](CC)C(=O)O)CC[C@@H]1C)[C@H]1O[C@]2(C=C[C@@H](O)[C@]3(CC[C@@](C)([C@H]4CC[C@](O)(CC)[C@H](C)O4)O3)O2)[C@H](C)C[C@@H]1C [Salinomycin]
Adj. Fd. Conv. (E. acervulina [1]; [8]): 1.946 b
Avg. Wt. Gain (E. acervulina [1]; [8]): 0.241 ab
Feed Consum. (E. acervulina [1]; [8]): 2.804 a
Lesion Score (E. acervulina [1]; [8]): 1.3 c
OPG (E. acervulina [1]; [8]): 2734 oocysts per gram of fecal material
Adj. Fd. Conv. (E. acervulina [1]; [9]): 1.948 b
Avg. Wt. Gain (E. acervulina [1]; [9]): 0.231 b
Feed Consum. (E. acervulina [1]; [9]): 2.692 ab
Lesion Score (E. acervulina [1]; [9]): 1.4 c
OPG (E. acervulina [1]; [9]): 217 oocysts per gram of fecal material
Adj. Fd. Conv. (E. maxima [2]; [10]): 2.021 b
Avg. Wt. Gain (E. maxima [2]; [10]): 0.225 b
Feed Consum. (E. maxima [2]; [10]): 2.718 ab
Lesion Score (E. maxima [2]; [10]): 1.3 cd
OPG (E. maxima [2]; [10]): 4435 oocysts per gram of fecal material
Adj. Fd. Conv. (E. maxima [2]; [11]): 1.960 b
Avg. Wt. Gain (E. maxima [2]; [11]): 0.230 b
Feed Consum. (E. maxima [2]; [11]): 2.647 bc
Lesion Score (E. maxima [2]; [11]): 1.2 days
OPG (E. maxima [2]; [11]): 167 oocysts per gram of fecal material
Lesion Scores E.A. (E. acervulina [3]; Day 18): 1.3a
OPG E.A. (E. acervulina [3]; Day 21): 2915bc oocysts per gram
Lesion Scores E.A. (E. acervulina [3]; Day 28): 1.2ab
OPG E.A. (E. acervulina [3]; Day 28): 3819b oocysts per gram
Lesion Scores E.M. (E. maxima [4]; Day 18): 0.7a
OPG E.M. (E. maxima [4]; Day 21): 1910bc oocysts per gram
Lesion Scores E.M. (E. maxima [4]; Day 28): 0.5b
OPG E.M. (E. maxima [4]; Day 28): 955b oocysts per gram
susceptibility of broilers to coccidial challenge (coccidia): increased the susceptibility
Adj. Fd. Conv. (E. tenella [5]; [12]): 1.929 ab
Avg. Wt. Gain (E. tenella [5]; [12]): 0.242 ab
Feed Consum. (E. tenella [5]; [12]): 2.787 a
Lesion Score (E. tenella [5]; [12]): 0.8 c
OPG (E. tenella [5]; [12]): 800 oocysts per gram of fecal material
Adj. Fd. Conv. (E. tenella [5]; [13]): 1.863 bc
Avg. Wt. Gain (E. tenella [5]; [13]): 0.245 ab
Feed Consum. (E. tenella [5]; [13]): 2.671 a
Lesion Score (E. tenella [5]; [13]): 0.6 c
OPG (E. tenella [5]; [13]): 150 oocysts per gram of fecal material
Lesion Scores E.T. (E. tenella [6]; Day 18): 0.5b
OPG E.T. (E. tenella [6]; Day 21): 5528a oocysts per gram
Lesion Scores E.T. (E. tenella [6]; Day 28): 0.1b
OPG E.T. (E. tenella [6]; Day 28): 3065ab oocysts per gram
Adj. FCR [7, 14]: 1.420ab
Feed Intake [7, 14]: 24.76a
Lesion Scores Total [7, 14]: 0.8b
Wt. Gain [7, 14]: 0.294a kg
OPG Total ([7]; Day 21, Composition 250 ppm, Salinomycin 66 ppm, alone or combined): 10352b oocysts per gram
Adj. FCR [7, 15]: 1.619b
Feed Intake [7, 15]: 74.09a
Lesion Scores Total [7, 15]: 0.6b
OPG Total [7, 15]: 7839b oocysts per gram
Wt. Gain [7, 15]: 0.875a kg
Adj. FCR [7, 16]: 1.773bc
Feed Intake [7, 16]: 175.68a
Mortality [7, 16]: 6.5a
Wt. Gain [7, 16]: 2.114a kg
performance ([7]; day 18, Salinomycin alone): did not improve performance
